The results in this text go back to patent publication US20100063085A1, “METHOD OF TREATING LEARNING IMPAIRMENT IN DOWN'S SYNDROME SUBJECTS” (University Court of The University of Dundee, priority 2008, published 2010).

Common to all, as to format: biochemical
In one assay the target is MAPKAP-K2 (Homo sapiens, UniProt P49137). Nature of the assay: MAPKAP-K2 33P kinase assay. Conditions: read-out: MAPKAP-K2 activity as percentage of control without inhibitor. As for the experimental part:
(§1) All assays (25.5 μl) were carried out at room temperature (21° C.) and were linear with respect to time and enzyme concentrations under the conditions used. Assays were performed for 30 minutes except assays for LCK and PKB which were performed for 15 minutes using Multidrop Micro reagent dispensers (Thermo Electron Corporation, Waltham, Mass. 02454, USA) in a 96-well format. The concentration of […] [γ-^33P] ATP (800 cpm/pmol) in the assays was one of three concentrations (5, 20 or 50 μM) in order to be at or below Km for ATP for the enzyme. Assays were initiated with MgATP and stopped by addition of 5 μl of 0.5M orthophosphoric acid. Assays were then harvested onto P81 filterplates using a unifilter harvester (PerkinElmer, Boston, Mass. 02118, USA), with a wash buffer of 50 mM orthophosphoric acid. Filterplates were then air dried overnight. 10 μl of Microscint O was added per well prior to counting for radioactivity.
(§2) MKK1, JNK/SAPK1c, SAPK2a/p38, SAPK2b/p38β2, SAPK3/p38γ, SAPK4/p38δ, MAPK2/ERK2, MAPKAP-K1β, MAPKAP-K2, MSK1, PRAK, PKA, PKCα, PDK1, SGK, p70S6K, GSK3β, ROCK-II, PRK2, AMPK, CHK1, CHK2, CK2, PHK, LCK, were assayed according to Davies et al., (Davies, S. P., Reddy, H., Caivano, M. and Cohen, P. Biochem. J. 351, 95-105, 2000.
(§3) CSK and CDK2/cyclinA, were assayed according to Bain et al. (Bain J, McLauchlan H, Elliott M, Cohen P. Biochem J. 371, 199-204, 2003., except that ATP concentrations were either 5, 20 or 50 micromolar so that they were at or below the Km for ATP. The ATP concentrations used were as follows, 5 μM for assays of MKK1, SAPK3, SAPK4, GSK3β, PRK2 CK2 20 μm for assays of JNK, SAPK2β, MAPKAP-K2, MSK1, PRAK, PKA, […], PDK1, SGK, p70S6K, ROCK-II, CHK1, CHK2, CSK, CDK2, and 50 μM for assays of SAPK2a, MAPK2/ERK2, AMPK, LCK, PHK and MAPKAP-K1β.

The target in a further assay is T1, NEK2a (Homo sapiens, UniProt P51955).
T1 sequence (P51955 1-445): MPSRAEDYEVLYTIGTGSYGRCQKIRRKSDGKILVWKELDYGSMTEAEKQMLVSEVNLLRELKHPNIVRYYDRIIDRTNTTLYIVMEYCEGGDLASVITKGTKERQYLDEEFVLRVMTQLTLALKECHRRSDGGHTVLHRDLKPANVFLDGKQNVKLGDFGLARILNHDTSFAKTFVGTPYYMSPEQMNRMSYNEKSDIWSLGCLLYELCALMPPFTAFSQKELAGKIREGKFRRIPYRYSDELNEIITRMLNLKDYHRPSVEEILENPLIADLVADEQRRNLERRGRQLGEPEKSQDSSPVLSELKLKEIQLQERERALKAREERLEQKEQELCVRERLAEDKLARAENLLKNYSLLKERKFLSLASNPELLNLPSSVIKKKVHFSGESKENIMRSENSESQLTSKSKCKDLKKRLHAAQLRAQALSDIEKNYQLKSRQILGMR
As to the kind of experiment: NEK2a 33P kinase assay. The settings on record: read-out: NEK2a activity as percentage of control without inhibitor. As for the experimental part: as §1
5-20 mU of NEK2a (diluted in 50 mM Tris (pH 7.5), 0.1 mM EGTA, 1 mg/ml BSA, 0.1%, β-Mercaptoethanol) is assayed against NEK2a peptide ([…]) in a final volume of 25.5 μl containing 50 mM Tris (pH 7.5), 0.1 mM EGTA, 0.01% Brij, 0.1%, β-Mercaptoethanol, 300 μM NEK2a peptide, 10 mM magnesium acetate and 0.05 mM [^33P- γATP](500-1000 cpm/pmole) and incubated for 30 mins at room temperature.

A further assay addresses MSK1 (Homo sapiens, UniProt O75582). Nature of the assay: MSK1 33P kinase assay. The settings on record: read-out: MSK1 activity as percentage of control without inhibitor. Here is the method: as §1, §2, §3
The next assay has as its target JNK/SAPK1c (Homo sapiens, UniProt P45983). Nature of the assay: JNK/SAPK1c 33P kinase assay. Conditions: read-out: JNK/SAPK1c activity as percentage of control without inhibitor. As for the experimental part:
as §1, §2, §3

Like-named read-outs stand apart in the source and are kept apart here.

Chain of MSK1 (O75582 whole entry, species assumed): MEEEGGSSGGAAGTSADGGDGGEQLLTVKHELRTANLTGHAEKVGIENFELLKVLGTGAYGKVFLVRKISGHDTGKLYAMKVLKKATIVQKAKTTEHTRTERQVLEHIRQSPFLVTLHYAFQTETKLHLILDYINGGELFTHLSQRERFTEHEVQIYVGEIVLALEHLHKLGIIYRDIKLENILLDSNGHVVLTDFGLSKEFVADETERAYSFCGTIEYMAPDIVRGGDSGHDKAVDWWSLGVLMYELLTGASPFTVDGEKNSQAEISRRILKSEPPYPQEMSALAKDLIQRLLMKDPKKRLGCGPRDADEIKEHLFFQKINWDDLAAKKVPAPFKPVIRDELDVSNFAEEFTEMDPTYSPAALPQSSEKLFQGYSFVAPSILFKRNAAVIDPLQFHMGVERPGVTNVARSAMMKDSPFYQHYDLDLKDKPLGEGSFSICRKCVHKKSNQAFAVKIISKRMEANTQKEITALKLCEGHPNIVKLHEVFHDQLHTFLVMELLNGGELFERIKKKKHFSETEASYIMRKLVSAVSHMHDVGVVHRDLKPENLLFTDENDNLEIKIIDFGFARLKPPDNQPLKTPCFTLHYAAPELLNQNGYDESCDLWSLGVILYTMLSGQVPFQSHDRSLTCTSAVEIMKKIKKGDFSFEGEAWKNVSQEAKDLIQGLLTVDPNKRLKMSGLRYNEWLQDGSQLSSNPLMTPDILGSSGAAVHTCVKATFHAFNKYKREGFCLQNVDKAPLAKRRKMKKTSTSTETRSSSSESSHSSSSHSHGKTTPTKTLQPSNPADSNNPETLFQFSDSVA
Chain of JNK/SAPK1c (P45983 whole entry): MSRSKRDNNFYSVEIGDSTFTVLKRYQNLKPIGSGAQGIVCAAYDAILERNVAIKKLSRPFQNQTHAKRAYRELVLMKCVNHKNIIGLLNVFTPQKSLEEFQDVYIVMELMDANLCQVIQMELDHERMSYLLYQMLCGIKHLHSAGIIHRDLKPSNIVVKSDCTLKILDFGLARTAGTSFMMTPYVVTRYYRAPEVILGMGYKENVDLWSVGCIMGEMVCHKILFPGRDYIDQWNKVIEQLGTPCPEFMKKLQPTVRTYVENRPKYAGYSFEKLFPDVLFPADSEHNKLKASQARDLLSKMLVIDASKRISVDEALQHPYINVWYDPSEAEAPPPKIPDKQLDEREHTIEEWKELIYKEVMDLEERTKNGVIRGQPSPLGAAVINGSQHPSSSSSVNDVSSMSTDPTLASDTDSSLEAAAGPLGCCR
Chain of MAPKAP-K2 (P49137 whole entry, species assumed): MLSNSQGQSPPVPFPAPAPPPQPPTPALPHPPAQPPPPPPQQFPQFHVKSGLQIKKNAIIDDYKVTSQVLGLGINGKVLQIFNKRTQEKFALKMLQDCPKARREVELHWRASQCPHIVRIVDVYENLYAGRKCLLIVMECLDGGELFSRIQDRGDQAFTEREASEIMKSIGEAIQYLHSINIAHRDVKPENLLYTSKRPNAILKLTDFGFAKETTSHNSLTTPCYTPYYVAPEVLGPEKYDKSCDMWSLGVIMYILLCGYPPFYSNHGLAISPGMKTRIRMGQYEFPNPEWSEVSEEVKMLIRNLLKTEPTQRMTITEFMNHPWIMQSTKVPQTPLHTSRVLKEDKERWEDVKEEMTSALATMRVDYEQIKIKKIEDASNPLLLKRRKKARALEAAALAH

For `COc1ccc2c3c([nH]c2c1)C(C)=NCC3` [Harmaline], the remaining activity at 1 µM amounted to 104% at MAPKAP-K2 (inhibitor 1 μM), 69% at NEK2a (inhibitor 1 μM), 98% at MSK1 (inhibitor 1 μM) and 99% on JNK/SAPK1c. For the same molecule, the remaining activity at 10 µM at MAPKAP-K2 (inhibitor 10 μM) was 112%; at NEK2a (inhibitor 10 μM) it was 109%; at MSK1 (inhibitor 10 μM), 111%; on JNK/SAPK1c, 96%.
As for `CC1=NCCc2c1[nH]c1cc(O)ccc21` [Harmalol], the remaining activity at 1 µM worked out at 79% on MAPKAP-K2 (inhibitor 1 μM), 104% at NEK2a (inhibitor 1 μM), 84% on MSK1 (inhibitor 1 μM) and 87% at JNK/SAPK1c (inhibitor 1 μM). Moreover, the remaining activity at 10 µM was 69% at MAPKAP-K2 (inhibitor 10 μM), 83% on NEK2a (inhibitor 10 μM), 59% at MSK1 (inhibitor 10 μM) and 84% on JNK/SAPK1c (inhibitor 10 μM).
For `COc1ccc2c(c1)[nH]c1c(C)nccc12` [Harmine], the remaining activity at 1 µM is 78% on MAPKAP-K2, 106% on NEK2a, 90% on MSK1 and 85% on JNK/SAPK1c. The remaining activity at 10 µM at MAPKAP-K2 was determined as 82%; at NEK2a, 111%; at MSK1, 88%; at JNK/SAPK1c it was 69%.
